Converted amounts (≈) assume the structure as drawn.
Key:
SPF-grade SD rats = assay: Forced swimming test; format: in vivo; conditions: 40 mg/kg Ip, three times (23.5 h, 5 h, 1 h before test), x ± SEM
Experimental: Forced swimming test is used to test the antidepressant effects of polymorph forms P, F, O, B and J.
the swimming test equipment is a transparent glass round cylinder with a height of 46 cm and an inner diameter of 20 cm, the test water temperature is 23° C.˜25° C., the test water depth is 30 cm, and each cylinder is used only once.
(§1) 300 mg of a polymorph form P is weighed with an electronic balance, and the polymorph form P is dissolved with 0.9% normal saline, and finally the volume is fixed to 100 mL with 0.9% normal saline, at this time, the concentration of dihydrochloride in the experimental reagent is 3 mg/mL for later use.
as §1, with “600” for “300”, “6” for “3”
400 mg of desipramine (DMI) is weighed with an electronic balance, DMI is dissolved with 0.9% normal saline, and then the volume is fixed to 100 mL with 0.9% normal saline for later use.
Forty SPF-grade SD rats are prepared and randomly divided into 4 groups, namely vehicle control group, positive control group, experimental group 1 and experimental group 2, with 10 rats in each group. The day before the test, the rats were placed in water for 15 min to pre-swim for 15 min in advance to adapt to the swimming test environment, then taken out and dried, placed in the cage under an infrared lamp for 15 min and then placed in the original cage. After 24 h, a formal swimming test is conducted, that is, the rats are put into water again after 24 h, and the rats are continuously observed for 5 min. The swimming process are needed to be photographed. The drug is administered during two swimming sessions.
The positive control group containing DMI is administered three times, at 23.5 h, 5 h and 1 h before the formal swimming test respectively. Vehicle control group, experimental group 1 and experimental group 2 are each administered only once and subcutaneously within 1 h.
The behaviors of the rats are scored by the scorer every 5 seconds after recording the experiment.
1) Static—when the rat floats on the water surface without struggling and moves only to keep its head above the water surface, the rat is evaluated as static;
2) Swimming—if the rats have obvious swimming behaviors, not only to keep their heads above the water surface, or to travel around in a round cylinder, they are evaluated as swimming;
3) Wall climbing—the rats' front paws have obvious behavior of entering and leaving the water surface, usually, rats are evaluated as wall climbing in front of the round cylinder wall.
All behavioral are scored by a single person. To avoid bias of observation, the scorer only observed and scored without knowing the administration situations. Then multiple test fragments are randomly selected, and the scorer will score the second round to determine the accuracy of observation. The test video is scored again by the second scorer to determine the accuracy between scorers. The second scorer are also required to observe without knowing the drug administration. Finally, in order to determine the effectiveness of the method, the first scorer scored again and recorded the duration of various behaviors with a stopwatch.
SPSSwin11.0 software is used for variance analysis. One-way variance analysis is used for homogeneity of variance, and Dunnett test is used for heterogeneity of variance.

[1] = Dynamic solubility test in water, SGF, FeSSIF, FaSSIF; format: physicochemical
Experimental: The dynamic solubility of a free base, polymorph forms B, P, F, J and O in water or a biological medium such as Stimulated Gastric Fluid (SGF), Fed State Simulated Intestinal Fluid (FeSSIF) or Fasted State Simulated Intestinal Fluid (FaSSIF) is determined.
0.2 g sodium chloride and 0.1 g Triton X-100 is weighed and placed into a 100 mL volumetric flask. Purified water is added to dissolve. A stir is performed until the solid is completely dissolved. About 135 μL concentrated hydrochloric acid solution (37%, […]) is added, then the pH is adjusted to 1.8 with […] hydrochloric acid or 1 mmoL/L sodium hydroxide. Finally, the volume is fixed with purified water to obtain Stimulated Gastric Fluid (SGF) for later use.
Each of 0.41 mL glacial acetic acid, 0.20 g sodium hydroxide and 0.59 g sodium chloride is weighed and placed to a 50 mL volumetric flask. About 48 mL purified water is added to dissolve, the pH is adjusted to 5.0 with 1 mmoL/L hydrochloric acid or 1 mmoL/L sodium hydroxide, and the volume is fixed with purified water. Then 0.56 g of Simulated Intestinal Fluid powder (SIF powder for short, which is composed of […] with a molar ratio of 4:1) is added, stirred and ultrasonically dissolved to obtain Fed State Simulated Intestinal Fluid (FeSSIF) for later use.
Each of 0.17 g of anhydrous sodium dihydrogen phosphate (NaH2PO4), 0.021 g of sodium hydroxide and 0.31 g of sodium chloride is weighed and placed into a 50 mL volumetric flask. About 48 mL of purified water is added to dissolve, the pH is adjusted to 6.5 with 1 mmoL/L hydrochloric acid or 1 mmoL/L sodium hydroxide, and the volume is fixed with purified water. 0.11 g of SIF powder is added, stirred and ultrasonically dissolved to obtain Fasted State Simulated Intestinal Fluid (FaSSIF) for later use.
Each 30 mg of the free base, and polymorph forms B, P, F, J and O are weighed. 3 mL of purified water, Stimulated Gastric Fluid (SGF), Fed State Simulated Intestinal Fluid (FeSSIF) or Fasted State Simulated Intestinal Fluid (FaSSIF)) is added and oscillated at room temperature. 0.6 mL of suspension is taken each time at a set time point, filtered and separated with a 0.45 μm nylon filter membrane, then XRPD characterization is performed on the solid sample, and the concentration in the clear solution is measured by HPLC.

[2] = Relative bioavailability test; format: in vivo, SPF-grade SD rats; conditions: rats, 20 mg/kg·bw by gavage in 0.5% CMC-Na, x ± s, n = 6, 20 mg/kg
Experimental: HPLC-MS/MS method is used to detect the blood drug concentration of target drugs in SPF-grade SD rats, and the relative bioavailability of 0.5% CMC-Na suspension of a free base and 0.5% CMC-Na solution of a polymorph form P are calculated and compared.
60.46 mg of a free base is accurately weighed and placed into a 15 mL centrifuge tube, 12 mL of 0.5% CMC-Na solution is measured and added into the centrifuge tube with a measuring cylinder, vortexed for 5 min, and ultrasonically dispersed for 15 min to obtain 0.5% CMC-Na suspension of free base with a concentration of 5.04 mg/ml, which is currently formulated when using and vibrated at any time during administration.
60.05 mg of a polymorph form P is accurately weighed and placed into a 15 mL centrifuge tube, 12 mL of 0.5% CMC-Na solution is measured and added into the centrifuge tube with a measuring cylinder, vortexed for 5 min, and ultrasonically dispersed for 15 min to obtain 0.5% CMC-Na solution of 5.00 mg/mL polymorph form P, which is currently formulated when using.
Twelve SPF-grade SD rats are selected and randomly divided into a free base group and a polymorph form P group with 6 rats in each group (both male and female). Animals are fasted for 12 h but have free access to water. Weighing is performed and, the administration volume of each rat is calculated according to the animal weight, so that the administration dose is 20 mg/kg·bw. During administration, the drugs are each administrated by gavage, and 0.5% CMC-Na suspension/solution of the above two target drugs are extracted by 2 mL syringe respectively. The gavage needle is inserted into the stomach from the corner of the rat's mouth and pushed the solution thereto.
Blood is collected from the fundus venous plexus of rats at 0.2 mL before (0 h) and 0.5, 1, 2, 4, 6, 8, 12 and 24 h after administration, anticoagulated with 300 IU/mL heparin (1:20) and centrifuged (3000 r/min) for 15 min. After plasma separation, the blood drug concentration of the target drug is determined by HPLC-MS/MS.
Referring to the above-mentioned bioavailability test of the polymorph form P, the bioavailability tests of polymorph forms F, O, B and J are conducted respectively. Different from the bioavailability test of the polymorph form P, rats are given 0.5% CMC-Na solution of the polymorph form F, O, B or J by gavage respectively. Other operations are the same as the above bioavailability test.

CNCCCN1c2ccccc2CCc2ccccc21 [desipramine, reference compound]
Behavior duration, Static (SPF-grade SD rats): 37.5 ± 6.5 s | Behavior duration, Swimming (SPF-grade SD rats): 143.0 ± 15.5 s | Behavior duration, Wall climbing (SPF-grade SD rats): 119.5 ± 12.0 s | Number of behaviors, Swimming (SPF-grade SD rats): 28.6 ± 3.1 times | Number of behaviors, Wall climbing (SPF-grade SD rats): 23.9 ± 2.4 times | Number of behaviors, Static (SPF-grade SD rats; 5 min observation): 7.5 ± 1.3 times

CC1CCN(C(=O)c2ccc([C@H](c3cccc(O)c3)N3C[C@@H](C)N(Cc4cccc(F)c4)C[C@@H]3C)cc2)CC1 [free base]
pH in clear solution ([1]; FaSSIF, Time 1): 6.5 | Crystal form of insoluble solid sample ([1]; FaSSIF, Time 1, XRPD): invariability | Solubility ([1]; FaSSIF, Time 1, room temperature): 13 µg/mL (≈ 24.5 µM) | pH in clear solution ([1]; FaSSIF, Time 2): 6.5 | Crystal form of insoluble solid sample ([1]; FaSSIF, Time 2, XRPD): invariability | Solubility ([1]; FaSSIF, Time 2, room temperature): 17 µg/mL (≈ 32.1 µM) | pH in clear solution ([1]; FaSSIF, Time 4): 6.5 | Crystal form of insoluble solid sample ([1]; FaSSIF, Time 4, XRPD): invariability | Solubility ([1]; FaSSIF, Time 4, room temperature): 16 µg/mL (≈ 30.2 µM) | pH in clear solution ([1]; FaSSIF, Time 24): 6.5 | Crystal form of insoluble solid sample ([1]; FaSSIF, Time 24, XRPD): invariability | Solubility ([1]; FaSSIF, Time 24, room temperature): 27 µg/mL (≈ 51 µM) | pH in clear solution ([1]; FeSSIF, Time 1): 4.9 | Crystal form of insoluble solid sample ([1]; FeSSIF, Time 1, XRPD): invariability | Solubility ([1]; FeSSIF, Time 1, room temperature): 59 µg/mL (≈ 111 µM) | pH in clear solution ([1]; FeSSIF, Time 2): 5.0 | Crystal form of insoluble solid sample ([1]; FeSSIF, Time 2, XRPD): invariability | Solubility ([1]; FeSSIF, Time 2, room temperature): 63 µg/mL (≈ 119 µM) | pH in clear solution ([1]; FeSSIF, Time 4): 5.0 | Crystal form of insoluble solid sample ([1]; FeSSIF, Time 4, XRPD): invariability | Solubility ([1]; FeSSIF, Time 4, room temperature): 62 µg/mL (≈ 117 µM) | pH in clear solution ([1]; FeSSIF, Time 24): 5.0 | Crystal form of insoluble solid sample ([1]; FeSSIF, Time 24, XRPD): invariability | Solubility ([1]; FeSSIF, Time 24, room temperature): 81 µg/mL (≈ 153 µM) | pH in clear solution ([1]; SGF, Time 1): 1.9 | Crystal form of insoluble solid sample ([1]; SGF, Time 1, XRPD): invariability | Solubility ([1]; SGF, Time 1, room temperature): 2100 µg/mL (≈ 3960 µM) | pH in clear solution ([1]; SGF, Time 2): 1.9 | Crystal form of insoluble solid sample ([1]; SGF, Time 2, XRPD): invariability | Solubility ([1]; SGF, Time 2, room temperature): 2700 µg/mL (≈ 5100 µM) | pH in clear solution ([1]; SGF, Time 4): 1.9 | Crystal form of insoluble solid sample ([1]; SGF, Time 4, XRPD): invariability | Solubility ([1]; SGF, Time 4, room temperature): 2700 µg/mL (≈ 5100 µM) | pH in clear solution ([1]; SGF, Time 24): 2.1 | Crystal form of insoluble solid sample ([1]; SGF, Time 24, XRPD): invariability | Solubility ([1]; SGF, Time 24, room temperature): 3200 µg/mL (≈ 6040 µM) | pH in clear solution ([1]; Water, Time 1): 5.6 | pH in clear solution ([1]; Water, Time 2): 5.7 | Crystal form of insoluble solid sample ([1]; Water, Time 2, XRPD): invariability | Solubility ([1]; Water, Time 2, room temperature): <LOQ | pH in clear solution ([1]; Water, Time 4): 5.6 | Crystal form of insoluble solid sample ([1]; Water, Time 4, XRPD): invariability | Solubility ([1]; Water, Time 4, room temperature): <LOQ | pH in clear solution ([1]; Water, Time 24): 5.8 | Crystal form of insoluble solid sample ([1]; Water, Time 24, XRPD): invariability | Solubility ([1]; Water, Time 24, room temperature): <LOQ | AUC(0-24h) [2]: 288.6 ng·h/mL | AUC(0-24h) ([2]; listed as Free base): 288.6 ± 64.7 ng·h/mL | Cmax ([2]; listed as Free base): 51.68 ± 6.56 ng/mL | Tmax ([2]; listed as Free base): 3.6 ± 0.9 h | t1/2z ([2]; listed as Free base): 2.4 ± 0.8 h

— US10730851B2, “Polymorph of triaryldimethylpiperazine dihydrochloride and preparation method and application thereof” (priority 2016, dated 2020)
